# Measurements: PMC11610137, “TRIM4 enhances small-molecule-induced neddylated-degradation of CORO1A for triple negative breast cancer therapy” (Theranostics, 2024)
# Biological target: T1, Coronin 1A (CORO1A) (Homo sapiens, UniProt P31146)
# T1 construct: EGFP-tagged CORO1A overexpressed in HEK 293T cells (lysate)
# Assay: MST with EGFP-CORO1A cell lysate; supported by CETSA and DARTS in MDA-MB-231 cells
# Type: binding
# T1 sequence (P31146 2-461): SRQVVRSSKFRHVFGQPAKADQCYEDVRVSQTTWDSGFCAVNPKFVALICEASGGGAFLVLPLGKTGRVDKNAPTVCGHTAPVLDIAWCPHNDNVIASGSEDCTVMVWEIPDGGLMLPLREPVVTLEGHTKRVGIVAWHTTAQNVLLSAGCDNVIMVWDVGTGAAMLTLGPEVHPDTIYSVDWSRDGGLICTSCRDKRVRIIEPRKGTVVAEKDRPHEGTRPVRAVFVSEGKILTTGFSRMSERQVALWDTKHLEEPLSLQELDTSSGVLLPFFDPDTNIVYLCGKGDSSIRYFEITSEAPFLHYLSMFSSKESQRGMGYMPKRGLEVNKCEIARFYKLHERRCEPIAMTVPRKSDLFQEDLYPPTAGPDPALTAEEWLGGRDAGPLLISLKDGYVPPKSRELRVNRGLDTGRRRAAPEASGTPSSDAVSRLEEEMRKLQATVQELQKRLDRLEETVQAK
substance,measurement,value
Aurovertin B [AB],Kd,352 nM
